Measured values from paper PMC5972032, “Evolution of substrate specificity in the Nucleobase-Ascorbate Transporter (NAT) protein family” (Microbial Cell, 2018).

Target: T1, UapA (Aspergillus nidulans, UniProt Q07307)
T1 construct: full-length, C-terminal GFP tag (plasmid pAN510-GFP), expressed in A. nidulans uapAΔ uapCΔ azgAΔ pabaA1 argB2; homodimer
Assay: inhibition of [3H]-xanthine uptake in germinating conidiospores
Format: cell-based
Description: inhibition of [3H]-xanthine uptake in germinating conidiospores on UapA | wild-type UapA can indeed bind L-ascorbate with very low affinity, reflected in a Ki

T1 sequence (Q07307 whole entry): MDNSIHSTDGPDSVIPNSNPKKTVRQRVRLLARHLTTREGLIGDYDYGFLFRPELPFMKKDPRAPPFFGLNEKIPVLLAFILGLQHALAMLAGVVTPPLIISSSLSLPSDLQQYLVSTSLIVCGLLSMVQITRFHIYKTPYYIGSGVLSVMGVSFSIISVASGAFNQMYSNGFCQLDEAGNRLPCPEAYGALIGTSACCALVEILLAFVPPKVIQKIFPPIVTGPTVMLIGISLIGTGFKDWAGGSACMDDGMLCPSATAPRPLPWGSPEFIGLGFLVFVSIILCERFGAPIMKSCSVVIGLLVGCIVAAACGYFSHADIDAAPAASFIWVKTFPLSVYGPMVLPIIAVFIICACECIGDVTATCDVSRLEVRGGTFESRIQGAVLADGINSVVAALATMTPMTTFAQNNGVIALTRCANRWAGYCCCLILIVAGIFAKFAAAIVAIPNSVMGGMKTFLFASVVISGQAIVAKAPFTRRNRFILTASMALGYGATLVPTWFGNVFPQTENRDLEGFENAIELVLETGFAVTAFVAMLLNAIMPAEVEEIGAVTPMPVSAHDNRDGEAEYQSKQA

- Ki: ~17 mM
SMILES: O=C1O[C@H]([C@@H](O)CO)C(O)=C1O [L-ascorbate]
